From patent US6846844B2, “Compounds and compositions for delivering active agents” (Emisphere Technologies, Inc., priority 2000, dated 2005)

Key:
[1] = Intracolonic delivery of heparin with delivery agent compound, activated partial thromboplastin time (APTT); assay type: in vivo, Sprague-Dawley rats; conditions: rats, intracolonic (IC); compound dose 50 mg/kg, heparin dose 25 mg/kg, volume dose 1 ml/kg; five rats; baseline about 20 sec
Experimental: Intracolonic (IC) dosing solutions containing a delivery agent compound and heparin sodium USP in 25% aqueous propylene glycol were prepared. Either the sodium salt of the delivery agent compound was used or the free acid was converted to the sodium salt with one equivalent of sodium hydroxide. Typically, the delivery agent compound and heparin (about 166-182 IU/mg) were mixed by vortex as dry powders. This dry mixture was dissolved in 25% v/v aqueous propylene glycol, vortexed and placed in a sonicator (about 37° C.). The pH was adjusted to about 7 (6.5 to 8.5) with aqueous NaOH (2N). The dosing solution was sonicated to produce a clear solution. The final volume was adjusted to 3.0 mL. The final delivery agent compound dose, heparin dose and volume dose amounts are listed below in Table 2.
The typical dosing and sampling protocols were as follows. […]
Citrated blood samples were collected by cardiac puncture following the administration of ketamine (88 mg/kg), typically at time=0.25, 0.5, 1.0 and 1.5 hours. Heparin activity was determined by utilizing the activated partial thromboplastin time (APTT) according to the method of Henry, J. B., Clinical Diagnosis and Management by Laboratory Methods, Philadelphia, Pa., W. B. Saunders (1979). […]

SMILES	melting point	Mean Peak APTT (sec) ± SD [1]
Cc1ccc(NC(=O)C[C@@H](C)CC(=O)O)c(O)c1 [Compound 2, (3R)-5-[(2-hydroxy-4-methylphenyl)amino]-3-methyl-5-oxo-pentanoic acid]	117 to 118 °C	–
Cc1c(Cl)cc(NC(=O)CC(C)CC(=O)O)c(O)c1Cl (stereo not drawn) [Compound 1, 3R-5-[(3,5-dichloro-2-hydroxy-4-methylphenyl)amino]-3-methyl-5-oxopentanoic acid]	171 to 173 °C	205.8 ± 32.4 s
